Patent US20180343865A1, “HERBICIDAL COMPOSITIONS COMPRISING ISOXAZOLO[5,4-B]PYRIDINES” (BASF SE, priority 2015, published 2018)

Legend:
Type in all cases: in vivo
Polygonum convolvulus = experiment: Greenhouse postemergence herbicidal activity on POLCO, 20 DAT; details: POLCO, postemergence, 20 DAT
Description: (§1) For the post emergence treatment, the plants were first grown to the 2 leaf station (GS 12) and applied at GS 12-19 depending on the species. The herbicidal compositions were suspended or emulsified in water as distribution medium and sprayed using finely distributing nozzles.
(§2) The plants have been cultivated due to their individual requirements at 10 to 25° C. and. 20 to 35° C. The plants were irrigated due to their necessity.
(§3) The respective stated components A), were formulated as a 5% by weight strength emulsion concentrate containing wettol EM 31 20% and Cyclohexanone 80%. The respective stated components B), were formulated as either emulsifiable concentrates (EC), soluble liquids (SL), suspension concentrates (SC) or soluble granules (SG) as indicated in the table below. Component A, component B and the solvent system are introduced into the spray liquor used for applying the active compound. In the examples, the solvent used was water containing 1% Dash (Agnique ME 181 37.5%, Lutensit A-EP 22.5%, and Oleic Acid 5%) and 2% ammonium suflate.
(§4) In the following experiments, the herbicidal activity for the individual herbicide compounds (solo and mixture applications), the herbicidal succession was assessed 20 days after treatment (DAT). The evaluation for the damage on undesired weeds caused by the chemical compositions was carried out using a scale from 0 to 100%, compared to the untreated control plants. Here, 0 means no damage and 100 means complete destruction of the plants. The plants used in the greenhouse experiments belonged to the following species:
(§5) The value E, which corresponds to the effect (in %) that is to be expected if the activity of the individual compounds is additive, was calculated using the method of S. R. Colby (1967) “Calculating synergistic and antagonistic responses of herbicide combinations”, Weeds 15, p. 22 ff. Colby calculation for 2 way mixtures:
(§6) where: • X=effect in percent using herbicide A at an application rate a; • Y=effect in percent using herbicide B at an application rate b; • E=expected effect (in %) of A+B at application rates a+b
(§7) If the value observed in this manner is higher than the value E calculated according to Colby, a synergistic effect is present.

Ipomoea hederacea = experiment: Greenhouse postemergence herbicidal activity on IPOHE, 20 DAT; details: 20 DAT
Description: as §1, §2, §3, §4, §5, §6, §7

Conyza canadiensis = experiment: Greenhouse postemergence herbicidal activity on ERICA, 20 DAT; details: ERICA, postemergence, 20 DAT
Description: as §1, §2, §3, §4, §5, §6, §7

Sinapis arvensis = experiment: Greenhouse postemergence herbicidal activity on SINAR, 20 DAT; details: 50 gai/ha
Description: as §1, §2, §3, §4, §5, §6, §7

Stellaria media = experiment: Greenhouse postemergence herbicidal activity on STEME, 20 DAT; details: STEME, postemergence, 20 DAT
Description: as §1, §2, §3, §4, §5, §6, §7

Chenopodium album = experiment: Greenhouse postemergence herbicidal activity on CHEAL, 20 DAT; details: 20 DAT
Description: as §1, §2, §3, §4, §5, §6, §7

Polygonum aviculare = experiment: Greenhouse postemergence herbicidal activity on POLAV, 20 DAT
Description: as §1, §2, §3, §4, §5, §6, §7

Kochia scoparia = experiment: Greenhouse postemergence herbicidal activity on KCHSC, 20 DAT; details: 25 gai/ha, 20 DAT
Description: as §1, §2, §3, §4, §5, §6, §7

Polygonum persicaria = experiment: Greenhouse postemergence herbicidal activity on POLPE, 20 DAT; details: postemergence, 20 DAT
Description: as §1, §2, §3, §4, §5, §6, §7

Ambrosia elatior = experiment: Greenhouse postemergence herbicidal activity on AMBEL, 20 DAT; details: AMBEL, postemergence, 20 DAT
Description: as §1, §2, §3, §4, §5, §6, §7

Abutilon theoprasti = experiment: Greenhouse postemergence herbicidal activity on ABUTH, 20 DAT; details: 20 DAT
Description: as §1, §2, §3, §4, §5, §6, §7

Matricaria chamomilla = experiment: Greenhouse postemergence herbicidal activity on MATCH, 20 DAT; details: 20 DAT
Description: as §1, §2, §3, §4, §5, §6, §7

Sorghum bicolor = experiment: Greenhouse postemergence herbicidal activity on SORVU, 20 DAT; details: SORVU, 200 gai/ha, postemergence, 20 DAT
Description: as §1, §2, §3, §4, §5, §6, §7

Amaranthus retroflexus = experiment: Greenhouse postemergence herbicidal activity on AMARE, 20 DAT; details: AMARE, postemergence, 20 DAT
Description: as §1, §2, §3, §4, §5, §6, §7

## O=C(O)COc1ccc(Cl)cc1Cl [2,4-D]
Polygonum convolvulus; 25 gai/ha
  % activity, solo 2,4-D: 30%
Polygonum convolvulus; 50 gai/ha
  % activity, solo 2,4-D: 40%
Polygonum convolvulus; 100 gai/ha
  % activity, solo 2,4-D: 70%
Ipomoea hederacea; 25 gai/ha
  % activity, solo 2,4-D: 98%
Ipomoea hederacea; 100 gai/ha
  % activity, solo 2,4-D: 98%
Conyza canadiensis; 25 gai/ha
  % activity, solo 2,4-D: 60%
Conyza canadiensis; 100 gai/ha
  % activity, solo 2,4-D: 75%
Sinapis arvensis
  % activity, solo 2,4-D: 80%
Stellaria media; 25 gai/ha
  % activity, solo 2,4-D: 0%
Stellaria media; 50 gai/ha
  % activity, solo 2,4-D: 0%
Stellaria media; 100 gai/ha
  % activity, solo 2,4-D: 30%
Chenopodium album; 50 gai/ha
  % activity, solo 2,4-D: 90%
Chenopodium album; 100 gai/ha
  % activity, solo 2,4-D: 90%
Polygonum aviculare; 25 gai/ha
  % activity, solo 2,4-D: 10%
Polygonum aviculare; 50 gai/ha
  % activity, solo 2,4-D: 98%
Kochia scoparia
  % activity, solo 2,4-D: 90%
Polygonum persicaria; POLPE, 25 gai/ha
  % activity, solo 2,4-D: 10%
Polygonum persicaria; POLPE, 50 gai/ha
  % activity, solo 2,4-D: 40%
Polygonum persicaria; POLPE, 100 gai/ha
  % activity, solo 2,4-D: 70%
Ambrosia elatior; 25 gai/ha
  % activity, solo 2,4-D: 45%
Abutilon theoprasti; 25 gai/ha
  % activity, solo 2,4-D: 50%
Abutilon theoprasti; 50 gai/ha
  % activity, solo 2,4-D: 80%
Abutilon theoprasti; 100 gai/ha
  % activity, solo 2,4-D: 90%

## Cc1cc(Cl)ccc1OCC(=O)O [MCPA]
Polygonum convolvulus; 50 gai/ha
  % activity, solo MCPA: 0%
Polygonum convolvulus; 100 gai/ha
  % activity, solo MCPA: 0%
Polygonum convolvulus; 200 gai/ha
  % activity, solo MCPA: 0%
Ipomoea hederacea; 50 gai/ha
  % activity, solo MCPA: 98%
Ipomoea hederacea; 100 gai/ha
  % activity, solo MCPA: 98%
Ipomoea hederacea; 200 gai/ha
  % activity, solo MCPA: 98%
Conyza canadiensis; 50 gai/ha
  % activity, solo MCPA: 60%
Stellaria media; 50 gai/ha
  % activity, solo MCPA: 0%
Stellaria media; 100 gai/ha
  % activity, solo MCPA: 0%
Stellaria media; 200 gai/ha
  % activity, solo MCPA: 20%
Chenopodium album; 200 gai/ha
  % activity, solo MCPA: 90%
Polygonum aviculare; 50 gai/ha
  % activity, solo MCPA: 10%
Polygonum aviculare; 100 gai/ha
  % activity, solo MCPA: 70%
Polygonum aviculare; 200 gai/ha
  % activity, solo MCPA: 98%
Matricaria chamomilla; 50 gai/ha
  % activity, solo MCPA: 20%
Matricaria chamomilla; 100 gai/ha
  % activity, solo MCPA: 30%
Polygonum persicaria; POLPE, 50 gai/ha
  % activity, solo MCPA: 20%
Polygonum persicaria; POLPE, 200 gai/ha
  % activity, solo MCPA: 60%
Polygonum persicaria; POPLE, 100 gai/ha
  % activity, solo MCPA: 35%
Sorghum bicolor
  % activity, solo MCPA: 30%
Ambrosia elatior; 50 gai/ha
  % activity, solo MCPA: 65%
Ambrosia elatior; 100 gai/ha
  % activity, solo MCPA: 65%
Abutilon theoprasti; 50 gai/ha
  % activity, solo MCPA: 60%
Abutilon theoprasti; 200 gai/ha
  % activity, solo MCPA: 75%
Amaranthus retroflexus; 50 gai/ha
  % activity, solo MCPA: 55%
Amaranthus retroflexus; 100 gai/ha
  % activity, solo MCPA: 65%
Amaranthus retroflexus; 200 gai/ha
  % activity, solo MCPA: 90%
